In ChEMBL document CHEMBL2203238, “Hit to Lead optimization of a novel class of squarate-containing polo-like kinases inhibitors” (Bioorg Med Chem Lett, 2012):

Columns and labels:
[1] = target: MAP/microtubule affinity-regulating kinase 3 (Homo sapiens, UniProt P27448); experiment: Inhibition of recombinant CTAK1 after 1 hr by scintillation counter analysis in presence of gamma-[33P]ATP
[2] = target: Vascular endothelial growth factor receptor 1 (Homo sapiens, UniProt P17948); experiment: Inhibition of recombinant FLT1 after 1 hr by scintillation counter analysis in presence of gamma-[33P]ATP
[3] = target: Receptor-type tyrosine-protein kinase FLT3 (Homo sapiens, UniProt P36888); experiment: Inhibition of recombinant FLT3 after 1 hr by scintillation counter analysis in presence of gamma-[33P]ATP
[4] = target: 5'-AMP-activated protein kinase subunit beta-1 (Homo sapiens, UniProt Q9Y478); experiment: Inhibition of recombinant AMPK after 1 hr by scintillation counter analysis in presence of gamma-[33P]ATP
[5] = target: RAC-alpha serine/threonine-protein kinase (Homo sapiens, UniProt P31749); experiment: Inhibition of recombinant AKT1 after 1 hr by scintillation counter analysis in presence of gamma-[33P]ATP
[6] = target: Cyclin-dependent kinase 5 (Homo sapiens, UniProt Q00535); experiment: Inhibition of recombinant CDK5 after 1 hr by scintillation counter analysis in presence of gamma-[33P]ATP
[7] = target: Glycogen synthase kinase-3 alpha (Homo sapiens, UniProt P49840); experiment: Inhibition of recombinant GSK3A after 1 hr by scintillation counter analysis in presence of gamma-[33P]ATP
[8] = target: Tyrosine-protein kinase ITK/TSK (Homo sapiens, UniProt Q08881); experiment: Inhibition of recombinant ITK after 1 hr by scintillation counter analysis in presence of gamma-[33P]ATP
[9] = target: Protein kinase C delta type (Homo sapiens, UniProt Q05655); experiment: Inhibition of recombinant PKCdelta after 1 hr by scintillation counter analysis in presence of gamma-[33P]ATP
Ephrin type-A receptor 2 = Ephrin type-A receptor 2 (Homo sapiens, UniProt P29317); experiment: Inhibition of recombinant EPHA2 after 1 hr by scintillation counter analysis in presence of gamma-[33P]ATP
Chain of Ephrin type-A receptor 2 (P29317 whole entry): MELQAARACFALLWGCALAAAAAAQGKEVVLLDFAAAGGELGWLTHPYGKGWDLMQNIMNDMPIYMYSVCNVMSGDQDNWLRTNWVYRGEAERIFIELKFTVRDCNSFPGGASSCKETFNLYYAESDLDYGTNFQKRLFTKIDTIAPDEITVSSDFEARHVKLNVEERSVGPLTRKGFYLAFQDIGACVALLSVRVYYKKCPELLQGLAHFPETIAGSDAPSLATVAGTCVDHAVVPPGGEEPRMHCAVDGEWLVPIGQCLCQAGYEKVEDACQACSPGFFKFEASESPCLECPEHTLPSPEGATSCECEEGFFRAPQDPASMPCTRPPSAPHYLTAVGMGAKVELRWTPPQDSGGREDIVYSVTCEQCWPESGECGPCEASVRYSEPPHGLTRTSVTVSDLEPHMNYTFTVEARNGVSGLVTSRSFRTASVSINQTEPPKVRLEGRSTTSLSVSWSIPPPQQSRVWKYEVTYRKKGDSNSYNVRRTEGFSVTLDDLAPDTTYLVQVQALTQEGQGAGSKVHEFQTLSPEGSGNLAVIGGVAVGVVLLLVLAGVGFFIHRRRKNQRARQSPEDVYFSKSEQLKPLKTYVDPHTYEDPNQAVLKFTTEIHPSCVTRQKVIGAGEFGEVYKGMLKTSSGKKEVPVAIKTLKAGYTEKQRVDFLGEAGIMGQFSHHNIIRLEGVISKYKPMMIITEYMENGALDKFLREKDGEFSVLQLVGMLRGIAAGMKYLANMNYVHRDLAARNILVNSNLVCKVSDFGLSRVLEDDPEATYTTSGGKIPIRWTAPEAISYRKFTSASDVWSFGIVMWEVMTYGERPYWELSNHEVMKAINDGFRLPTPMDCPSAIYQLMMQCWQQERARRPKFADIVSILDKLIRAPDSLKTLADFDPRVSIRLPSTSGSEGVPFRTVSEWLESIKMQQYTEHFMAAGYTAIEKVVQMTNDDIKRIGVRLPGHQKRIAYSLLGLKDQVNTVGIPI

[10] = target: Mitogen-activated protein kinase 1 (Homo sapiens, UniProt P28482); experiment: Inhibition of recombinant ERK2 after 1 hr by scintillation counter analysis in presence of gamma-[33P]ATP
Chain of Mitogen-activated protein kinase 1 (P28482 whole entry): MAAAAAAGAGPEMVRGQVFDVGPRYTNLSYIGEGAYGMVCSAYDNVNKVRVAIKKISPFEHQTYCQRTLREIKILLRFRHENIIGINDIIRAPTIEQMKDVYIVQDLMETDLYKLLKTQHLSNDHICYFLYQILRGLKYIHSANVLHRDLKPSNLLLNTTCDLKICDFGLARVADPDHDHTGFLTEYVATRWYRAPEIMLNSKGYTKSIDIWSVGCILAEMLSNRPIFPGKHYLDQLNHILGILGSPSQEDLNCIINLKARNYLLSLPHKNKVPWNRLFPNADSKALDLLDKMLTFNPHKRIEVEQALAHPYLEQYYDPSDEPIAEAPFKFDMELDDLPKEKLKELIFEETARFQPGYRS

[11] = target: Receptor tyrosine-protein kinase erbB-4 (Homo sapiens, UniProt Q15303); experiment: Inhibition of recombinant ERBB4 after 1 hr by scintillation counter analysis in presence of gamma-[33P]ATP
[12] = target: Fibroblast growth factor receptor 3 (Homo sapiens, UniProt P22607); experiment: Inhibition of recombinant FGFR3 after 1 hr by scintillation counter analysis in presence of gamma-[33P]ATP
[13] = target: Serine/threonine-protein kinase Nek2 (Homo sapiens, UniProt P51955); experiment: Inhibition of recombinant NEK2 after 1 hr by scintillation counter analysis in presence of gamma-[33P]ATP
Chain of Serine/threonine-protein kinase Nek2 (P51955 whole entry): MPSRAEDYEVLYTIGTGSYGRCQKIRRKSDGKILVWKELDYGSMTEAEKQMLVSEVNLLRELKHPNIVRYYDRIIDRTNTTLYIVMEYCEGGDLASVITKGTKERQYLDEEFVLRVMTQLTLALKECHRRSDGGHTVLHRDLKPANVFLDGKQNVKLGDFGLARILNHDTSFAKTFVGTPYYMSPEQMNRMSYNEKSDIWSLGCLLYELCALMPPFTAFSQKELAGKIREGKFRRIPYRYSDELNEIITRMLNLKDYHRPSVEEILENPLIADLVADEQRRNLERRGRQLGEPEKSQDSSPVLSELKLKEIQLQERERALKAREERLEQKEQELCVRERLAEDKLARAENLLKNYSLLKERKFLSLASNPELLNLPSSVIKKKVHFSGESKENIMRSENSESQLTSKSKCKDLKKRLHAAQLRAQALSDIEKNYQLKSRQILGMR

[14] = target: Interleukin-1 receptor-associated kinase 4 (Homo sapiens, UniProt Q9NWZ3); experiment: Inhibition of recombinant IRAK4 after 1 hr by scintillation counter analysis in presence of gamma-[33P]ATP
[15] = target: Tyrosine-protein kinase JAK2 (Homo sapiens, UniProt O60674); experiment: Inhibition of recombinant JAK2 after 1 hr by scintillation counter analysis in presence of gamma-[33P]ATP
[16] = target: Rho-associated protein kinase 2 (Homo sapiens, UniProt O75116); experiment: Inhibition of recombinant ROCK2 after 1 hr by scintillation counter analysis in presence of gamma-[33P]ATP
[17] = target: Serine/threonine-protein kinase pim-2 (Homo sapiens, UniProt Q9P1W9); experiment: Inhibition of recombinant PIM2 after 1 hr by scintillation counter analysis in presence of gamma-[33P]ATP
[18] = Inhibition of recombinant PKA after 1 hr by scintillation counter analysis in presence of gamma-[33P]ATP
[19] = target: Calcium/calmodulin-dependent protein kinase type IV (Homo sapiens, UniProt Q16566); experiment: Inhibition of recombinant CAMK4 after 1 hr by scintillation counter analysis in presence of gamma-[33P]ATP
[20] = target: Casein kinase I isoform delta (Homo sapiens, UniProt P48730); experiment: Inhibition of recombinant CK1delta after 1 hr by scintillation counter analysis in presence of gamma-[33P]ATP
[21] = target: Hepatocyte growth factor receptor (Homo sapiens, UniProt P08581); experiment: Inhibition of recombinant c-MET after 1 hr by scintillation counter analysis in presence of gamma-[33P]ATP
[22] = target: Insulin-like growth factor 1 receptor (Homo sapiens, UniProt P08069); experiment: Inhibition of recombinant IGF1R after 1 hr by scintillation counter analysis in presence of gamma-[33P]ATP
Chain of Insulin-like growth factor 1 receptor (P08069 31-736 limits assumed): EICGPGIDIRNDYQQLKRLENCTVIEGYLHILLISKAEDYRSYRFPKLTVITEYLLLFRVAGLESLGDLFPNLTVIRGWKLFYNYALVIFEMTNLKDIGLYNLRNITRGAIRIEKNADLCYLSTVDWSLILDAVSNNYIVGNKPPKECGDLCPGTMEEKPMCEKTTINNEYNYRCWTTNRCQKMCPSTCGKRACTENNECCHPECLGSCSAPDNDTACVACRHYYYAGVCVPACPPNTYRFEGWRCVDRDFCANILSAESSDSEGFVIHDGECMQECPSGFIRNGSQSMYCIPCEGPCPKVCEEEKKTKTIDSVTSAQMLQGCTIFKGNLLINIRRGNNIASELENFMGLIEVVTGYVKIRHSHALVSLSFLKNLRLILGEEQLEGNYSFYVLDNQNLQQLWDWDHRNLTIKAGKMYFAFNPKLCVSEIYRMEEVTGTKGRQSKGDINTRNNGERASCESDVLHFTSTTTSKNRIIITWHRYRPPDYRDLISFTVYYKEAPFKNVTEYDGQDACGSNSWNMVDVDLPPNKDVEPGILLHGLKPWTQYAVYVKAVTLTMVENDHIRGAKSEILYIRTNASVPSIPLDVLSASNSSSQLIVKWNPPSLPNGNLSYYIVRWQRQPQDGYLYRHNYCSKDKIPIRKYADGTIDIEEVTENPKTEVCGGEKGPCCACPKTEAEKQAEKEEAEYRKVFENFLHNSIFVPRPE
Chain of Insulin-like growth factor 1 receptor (P08069 741-1367 limits assumed): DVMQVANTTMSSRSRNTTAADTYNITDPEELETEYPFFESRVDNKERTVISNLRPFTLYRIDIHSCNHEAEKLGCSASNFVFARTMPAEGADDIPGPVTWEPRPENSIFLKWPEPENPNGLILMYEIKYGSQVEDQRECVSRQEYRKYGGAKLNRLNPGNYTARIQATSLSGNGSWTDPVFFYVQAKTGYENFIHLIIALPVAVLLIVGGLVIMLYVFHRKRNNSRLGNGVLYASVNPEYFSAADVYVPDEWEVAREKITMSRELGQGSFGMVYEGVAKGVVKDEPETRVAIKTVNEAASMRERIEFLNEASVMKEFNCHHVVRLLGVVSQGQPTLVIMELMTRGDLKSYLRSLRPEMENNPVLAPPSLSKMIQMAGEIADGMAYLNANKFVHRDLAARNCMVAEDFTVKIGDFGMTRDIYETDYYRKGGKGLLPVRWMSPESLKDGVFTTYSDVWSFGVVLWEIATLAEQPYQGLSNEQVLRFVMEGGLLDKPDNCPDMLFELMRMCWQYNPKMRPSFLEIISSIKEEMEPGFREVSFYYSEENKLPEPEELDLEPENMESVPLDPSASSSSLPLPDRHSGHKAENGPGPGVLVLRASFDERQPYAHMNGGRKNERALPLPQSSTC

[23] = target: Glycogen synthase kinase-3 beta (Homo sapiens, UniProt P49841); experiment: Inhibition of recombinant GSK3B after 1 hr by scintillation counter analysis in presence of gamma-[33P]ATP
[24] = target: Tyrosine-protein kinase Lyn (Homo sapiens, UniProt P07948); experiment: Inhibition of recombinant LYN after 1 hr by scintillation counter analysis in presence of gamma-[33P]ATP
[25] = target: Serine/threonine-protein kinase D2 (Homo sapiens, UniProt Q9BZL6); experiment: Inhibition of recombinant PKD2 after 1 hr by scintillation counter analysis in presence of gamma-[33P]ATP
[26] = target: 3-phosphoinositide-dependent protein kinase 1 (Homo sapiens, UniProt O15530); experiment: Inhibition of recombinant PDK1 after 1 hr by scintillation counter analysis in presence of gamma-[33P]ATP
Chain of 3-phosphoinositide-dependent protein kinase 1 (O15530 whole entry): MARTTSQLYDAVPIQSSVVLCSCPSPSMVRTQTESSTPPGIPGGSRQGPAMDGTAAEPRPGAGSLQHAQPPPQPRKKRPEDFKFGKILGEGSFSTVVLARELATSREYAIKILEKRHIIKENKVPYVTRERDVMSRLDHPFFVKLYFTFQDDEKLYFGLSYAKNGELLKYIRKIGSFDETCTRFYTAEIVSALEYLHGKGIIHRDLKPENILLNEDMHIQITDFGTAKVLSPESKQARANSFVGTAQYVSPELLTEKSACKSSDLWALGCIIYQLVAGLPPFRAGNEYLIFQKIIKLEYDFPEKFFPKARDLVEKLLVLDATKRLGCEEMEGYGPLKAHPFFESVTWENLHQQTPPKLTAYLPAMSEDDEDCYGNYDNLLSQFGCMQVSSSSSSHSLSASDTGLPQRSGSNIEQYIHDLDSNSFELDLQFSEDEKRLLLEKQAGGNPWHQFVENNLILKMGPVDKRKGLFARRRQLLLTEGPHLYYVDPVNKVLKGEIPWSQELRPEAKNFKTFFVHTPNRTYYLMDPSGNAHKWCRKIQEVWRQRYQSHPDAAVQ

[27] = target: Mitogen-activated protein kinase 13 (Homo sapiens, UniProt O15264); experiment: Inhibition of recombinant P38delta after 1 hr by scintillation counter analysis in presence of gamma-[33P]ATP
Chain of Mitogen-activated protein kinase 13 (O15264 whole entry): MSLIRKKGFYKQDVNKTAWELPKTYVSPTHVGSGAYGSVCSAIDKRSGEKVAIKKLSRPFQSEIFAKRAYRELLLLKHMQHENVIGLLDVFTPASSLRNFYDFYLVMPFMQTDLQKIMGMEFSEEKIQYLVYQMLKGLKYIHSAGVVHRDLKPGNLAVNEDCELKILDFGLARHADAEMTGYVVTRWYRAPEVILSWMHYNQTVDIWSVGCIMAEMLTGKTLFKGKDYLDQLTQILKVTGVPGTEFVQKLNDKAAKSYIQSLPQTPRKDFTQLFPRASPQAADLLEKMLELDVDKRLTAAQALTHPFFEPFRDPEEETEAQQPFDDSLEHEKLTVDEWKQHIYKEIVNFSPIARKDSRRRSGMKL

Chain of MAP/microtubule affinity-regulating kinase 3 (P27448 whole entry): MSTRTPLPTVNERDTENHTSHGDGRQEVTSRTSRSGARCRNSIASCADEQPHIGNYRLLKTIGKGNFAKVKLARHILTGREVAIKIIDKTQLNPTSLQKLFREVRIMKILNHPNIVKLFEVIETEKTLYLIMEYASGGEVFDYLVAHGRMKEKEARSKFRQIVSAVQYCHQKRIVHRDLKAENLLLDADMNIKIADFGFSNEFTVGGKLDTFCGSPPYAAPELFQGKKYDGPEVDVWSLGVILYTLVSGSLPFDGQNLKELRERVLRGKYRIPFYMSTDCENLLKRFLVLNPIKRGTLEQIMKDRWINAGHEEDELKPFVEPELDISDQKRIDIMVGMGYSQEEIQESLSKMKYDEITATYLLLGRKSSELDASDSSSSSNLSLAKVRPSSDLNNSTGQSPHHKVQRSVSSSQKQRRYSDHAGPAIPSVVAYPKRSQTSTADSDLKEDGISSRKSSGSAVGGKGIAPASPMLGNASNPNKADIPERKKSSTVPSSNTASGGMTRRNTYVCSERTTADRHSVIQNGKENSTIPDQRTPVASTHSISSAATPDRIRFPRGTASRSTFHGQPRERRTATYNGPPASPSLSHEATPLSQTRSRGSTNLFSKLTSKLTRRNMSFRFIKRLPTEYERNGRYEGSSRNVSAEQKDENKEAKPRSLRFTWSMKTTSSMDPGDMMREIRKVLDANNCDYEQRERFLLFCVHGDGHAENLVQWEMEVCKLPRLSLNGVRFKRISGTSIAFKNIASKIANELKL

For CC(C)(C)Nc1c(Nc2ccnc(Nc3ccc(-c4ccncc4)cc3)n2)c(=O)c1=O, the Ki [1] was 4.83 µM, the Ki [2] was 0.014 µM and the Ki [3] was 0.494 µM. For the same molecule, the Ki [4] was 0.333 µM, the Ki [5] was > 8 µM and the Ki [6] was 0.416 µM. The Ki [7] was 0.021 µM, the Ki [8] was > 1.5 µM and the Ki [9] was 0.0079 µM. For the same molecule, the Ki (Ephrin type-A receptor 2) was > 2.8 µM, the Ki [10] was 7.2 µM and the Ki [11] was > 3.7 µM. The Ki [12] was 1.4 µM, the Ki [13] was > 9.2 µM and the Ki [14] was > 9.9 µM. The Ki [15] was 0.92 µM, the Ki [16] was 0.43 µM and the Ki [17] was > 1.4 µM. For the same molecule, the Ki [18] was > 7.5 µM, the Ki [19] was > 8.5 µM and the Ki [20] was > 7.8 µM. The Ki [21] was 1.6 µM, the Ki [22] was > 1.8 µM and the Ki [23] was 0.102 µM. The Ki [24] was > 1.6 µM, the Ki [25] was 0.175 µM and the Ki [26] was 0.071 µM. The Ki [27] was 5.9 µM.
